Biological target: T1, GPER1 (Mus musculus, UniProt Q8BMP4)
T1 construct: Purified C57/BL6 CD4^+ T cells were preincubated with the GPER1 antagonist G15; endogenous in cells; host or cells: purified primary CD4+ T cells from C57/BL6 mice
T1 sequence (Q8BMP4 1-375): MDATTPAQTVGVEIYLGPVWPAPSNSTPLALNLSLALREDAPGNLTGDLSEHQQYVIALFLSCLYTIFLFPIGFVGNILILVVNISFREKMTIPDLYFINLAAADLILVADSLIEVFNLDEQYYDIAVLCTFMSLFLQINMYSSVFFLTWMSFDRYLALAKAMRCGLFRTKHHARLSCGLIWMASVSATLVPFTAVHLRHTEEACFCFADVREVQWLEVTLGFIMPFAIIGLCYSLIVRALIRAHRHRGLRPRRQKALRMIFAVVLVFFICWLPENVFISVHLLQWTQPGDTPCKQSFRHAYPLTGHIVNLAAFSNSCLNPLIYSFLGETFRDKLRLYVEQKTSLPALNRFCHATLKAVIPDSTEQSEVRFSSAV
Assay: GPER1 dependence: CD25/CD69 on CD4+ T cells with G15 or G1
Format: cell-based, C57/BL6 mice
Details: for cell viability: at 6 hours
Protocol: FIGS. 6A and 6B show purified CD4^+ T cells that were pretreated with 2-50 μM 2ME2 and/or the GPER1 antagonist G15, and subsequently stimulated with anti-CD3/28 for 6 hours. Activation of CD4^+ T cells was assessed by CD25 and CD69 upregulation, measured by flow cytometry. US, unstimulated. Data is shown as mean±SD for triplicate determinations, and is representative of two separate experiments.
Purified C57/BL6 CD4^+ T cells were preincubated with the GPER1 antagonist G15 (100 nM, Tocris) and 2ME2 (0-50 μM), or the GPER1 agonist G1 (1-100 nM, Tocris) for 30 minutes, and activated with plate bound anti-CD3 plus soluble anti-CD28. 6 hours later, cells were harvested, stained with anti-CD4 and anti-CD25. CD25 expression was monitored on a HTS FACSCanto II (BD) and analyzed with FloJo (Treestar Inc).

[1] = G15 100 nM with 2ME2, anti-CD3/28, 6 hours

Row | reversal of the inhibitory effect of 2ME2 on CD25 expression [1] | reversal of the inhibitory effect of 2ME2 on CD69 expression [1] | CD25 expression on activated T cells (G1 1-100 nM, 6 hours) | CD69 expression on activated T cells (G1 1-100 nM, 6 hours) | SMILES | cell viability
1 | failed to reverse | failed to reverse | – | – | Brc1cc2c(cc1[C@@H]1Nc3ccccc3[C@@H]3C=CC[C@@H]31)OCO2 [G15] | Neither 2ME2, G1 nor G15 affected cell viability
2 | – | – | no effect | no effect | CC(=O)c1ccc2c(c1)C1C=CCC1C(c1cc3c(cc1Br)OCO3)N2 (stereo not drawn) [G1] | Neither 2ME2, G1 nor G15 affected cell viability

From patent US9132138B2, “Method for the treatment of multiple sclerosis” (CASI Pharmaceuticals, Inc., priority 2012, dated 2015)
